Source: US6852688B2, “Compositions for treating diabetic retinopathy and methods of using same” (University of Florida, priority 2000, dated 2005)
Where “and” joins values, the source holds several entries; their conditions need not be identical. Equal values may be shown once.

Columns and labels:
[1] = test system: patients with type I diabetes and severe non-proliferative DR or non-"high risk" proliferative DR; test: Phase I human study: octreotide plus conventional diabetes management versus conventional management alone, 15 months; format: in vivo
Description: A total of 39 patients with type I or type II diabetes and diagnosed with either severe non-proliferative DR or non-“high risk” proliferative DR were enrolled between 1991 and 1996 into Phase I or Phase II of the study. Subjects were recruited from patients treated for diabetes mellitus at the University of Florida Adult Endocrinology clinics and referrals from community retinal specialists. All patients provided written informed consent to participate in required study procedures. Volunteers in both phases of the study were randomized to receive conventional diabetes management alone (control group) or octreotide treatment with conventional diabetes care (OCT group). Octreotide was administered via subcutaneous injection 4 times daily or via continuous subcutaneous infusion with doses individually adjusted to the highest tolerated somatostatin analogue levels. The intent was to increase the dose of octreotide until serum IGF-1 was decreased to the hypopituitary range of 75 ng/mL or drug related adverse effects limited octreotide dosing. […] It was expected that approximately 35 to 50% of the control group would progress to photocoagulation within the 15-month period (The Diabetic Retinopathy Study Research Group: Indications for photocoagulation treatment of diabetic retinopathy: Diabetic Reinopathy Study Report No. 14. Int. Opthalmol. Clin. 27:239 (1987)).
Subjects were evaluated at monthly intervals for ocular changes using procedures established in the Early Treatment Diabetic Retinopathy Study (ETDRS) trial (Techniques for scatter and local photocoagulation treatment of diabetic retinopathy. Early Treatment Diabetic Retinopathy Study Report No. 3. The Early Treatment Diabetic Retinopathy Study Research Group. Int Ophthalmol Clin. 27:254-64 (1987)). Ocular examination included fluorescein angiograms and stereoscopic fundis photographs using seven standard photographic fields. Each field was 30 degrees with the first 2 fields centered on the disc and macula. The other fields imaged the surrounding retina. Photographs were assessed for severity of retinopathy using an extension of the modified Airlie House classification scheme. Severe non-proliferative DR required the presence of at least 3 of the following characteristics: cotton wool patches, venous beading, intraretinal microvascular abnormalities (IRMA) or extensive retinal hemorrhages. Inclusion criteria also required understanding the study protocol and willingness to participate in required study procedures. Exclusion criteria included: current use of tobacco products, regular medication other than prescribed antidiabetic agents and thyroxine, history of psychiatric illness, illicit drug use, sitting diastolic blood pressure values greater than […], serum creatinine clearance below 30 ml/min, and a body mass index that differed more than 20% from normal published ranges for the subject's height and sex.
Sixteen subjects with Type I diabetes participated in and completed the Phase-I protocol, with 8 patients randomly assigned to conventional diabetes management and 8 patients assigned treatment with maximally tolerated doses of octreotide in conjunction with routine diabetes management.
Initial octreotide doses of 500 μg/day were escalated based on IGF-1 levels to a maximum of 3000 μg/day during the 15-month treatment period. The range of maximally tolerated octreotide doses used throughout the 15-month treatment period was 600 to 3000 μg/day. The Phase protocol included a 5-day evaluation period with patients confined to the clinical research unit at study initiation. Octreotide treated patients were monitored for response to the initial 500 μg/day dose of octreotide (administered as a constant subcutaneous infusion). GH secretion was quantified from area under the serum concentration versus time curve (AUC) for blood samples collected every 2 to 4 hours throughout a 24-hour period. […]

[2] = test system: patients with early DR; details: cited from earlier work
[3] = test system: human retinal endothelial cells; details: rapidly proliferating cells, in vitro; cited from earlier work
[4] = test system: patients with Type I or Type II diabetes and severe non-proliferative DR or non-"high risk" proliferative DR; test: Phase II human study: octreotide plus thyroid hormone (levothyroxine) versus conventional diabetes management, 15 months; format: in vivo; details: thyroxine alone 100 to 200 μg/day for hypothyroidism, no octreotide
Description: A total of 39 patients with type I or type II diabetes and diagnosed with either severe non-proliferative DR or non-“high risk” proliferative DR were enrolled between 1991 and 1996 into Phase I or Phase II of the study. Subjects were recruited from patients treated for diabetes mellitus at the University of Florida Adult Endocrinology clinics and referrals from community retinal specialists. All patients provided written informed consent to participate in required study procedures. Volunteers in both phases of the study were randomized to receive conventional diabetes management alone (control group) or octreotide treatment with conventional diabetes care (OCT group). Octreotide was administered via subcutaneous injection 4 times daily or via continuous subcutaneous infusion with doses individually adjusted to the highest tolerated somatostatin analogue levels. […]
Subjects were evaluated at monthly intervals for ocular changes using procedures established in the Early Treatment Diabetic Retinopathy Study (ETDRS) trial (Techniques for scatter and local photocoagulation treatment of diabetic retinopathy. Early Treatment Diabetic Retinopathy Study Report No. 3. The Early Treatment Diabetic Retinopathy Study Research Group. Int Ophthalmol Clin. 27:254-64 (1987)). […] Photographs were assessed for severity of retinopathy using an extension of the modified Airlie House classification scheme. […]

[5] = octreotide treated group, p<0.05 vs conventionally treated group

Row | Structure (SMILES) | patients requiring PRP during the 15-month study ([1]; 8 patients per group, control also 4 of 8) | mean time for disease progression to laser surgery (PRP) ([1]; control 6.0 months, not different) [months] | mean HbA1c after at least 3 months of study ([1]; conventional management 8.1%±1.8%, p<0.05) | mean decrease in 24 hour AUC for GH (GH secretion) ([1]; initial 500 μg/day constant subcutaneous infusion, day 5 of treatment, compared to control, p<0.05) [%] | patients with IGF-1 decreased into the hypophysectomized range of 75 ng/ml ([1]; maximally tolerated doses 600 to 3000 μg/day) | effect on progression of DR ([1]; maximally tolerated octreotide in the absence of thyroid hormone replacement) | mean IGF-1 at the end of treatment ([1]; octreotide 600 to 3000 μg/day, 15 months, decreased from 241±58 ng/ml at study enrollment, p<0.05 vs control) [ng/mL] | decrease in insulin requirements [1, 5] [%] | improvement in proteinuria [1, 5] [%] | retinal disease versus conventionally managed patients ([2]; early DR, one year, 400 μg/day) | thyroid adverse finding ([2]; infused for one year with 400 μg/day, no evidence for clinical significance) | effect on IGF-I and b-FGF stimulated growth of cells [3] | control patients receiving thyroxine who required PRP [4]
1 | C[C@@H](O)[C@@H]1NC(=O)[C@H](CCCCN)NC(=O)[C@@H](Cc2c[nH]c3ccccc23)NC(=O)[C@H](Cc2ccccc2)NC(=O)[C@@H](NC(=O)[C@H](N)Cc2ccccc2)CSSC[C@@H](C(=O)N[C@H](CO)[C@@H](C)O)NC1=O [octreotide] | Four and 4 of 8 | 8.5 | 6.4%±0.9 | 33 | 1 of 8 | not effective in retarding progression of DR | 130 ± 38 | 29 | 82 | no difference | mild hypothyroidism | direct inhibitory effects | –
2 | N[C@@H](Cc1cc(I)c(Oc2cc(I)c(O)c(I)c2)c(I)c1)C(=O)O [thyroxine, levothyroxine] | – | – | – | – | – | – | – | – | – | – | – | – | 3 of the 7
